Reference: patent EP4722207A1, “OXOISOINDOLINYL-SUBSTITUTED TETRAHYDROPYRIMIDINEDIONE DERIVATIVE AND USE THEREOF” (Gluetacs Therapeutics (Shanghai) Co., Ltd., priority 2023, dated 2024)

How the values were obtained:
Type in all cases: cell-based
[1] = molecular target: T1, WEE1 (Homo sapiens, UniProt P30291+Q96SW2); test: Western-blot assay, substrate protein degradation in hPBMCs: WEE1; settings: for WEE1 substrate protein remaining %: compounds at 50 nM and 500 nM, 24 hours; for substrate protein remaining % WEE1: 24 hours of compound treatment, 50 nM and 500 nM
T1 construct: effects of the compounds of the present disclosure on the expression of target proteins in cells; endogenous in cells; host or cells: human PBMCs (hPBMCs)

[2] = molecular target: T2, IKZF1 (Homo sapiens, UniProt Q13422+Q96SW2); test: Western-blot assay, substrate protein degradation in hPBMCs: IKZF1; settings: for IKZF1 substrate protein remaining %: compounds at 50 nM and 500 nM, 24 hours; for substrate protein remaining % IKZF1: 24 hours of compound treatment, 50 nM and 500 nM
T2 construct: effects of the compounds of the present disclosure on the expression of target proteins in cells; endogenous in cells; host or cells: human PBMCs (hPBMCs)

[3] = molecular target: T3, IKZF2 (Homo sapiens, UniProt Q96SW2+Q9UKS7); test: Western-blot assay, substrate protein degradation in hPBMCs: IKZF2; settings: for IKZF2 substrate protein remaining %: compounds at 50 nM and 500 nM, 24 hours; for substrate protein remaining % IKZF2: 24 hours of compound treatment, 50 nM and 500 nM
T3 construct: effects of the compounds of the present disclosure on the expression of target proteins in cells; endogenous in cells; host or cells: human PBMCs (hPBMCs)

[4] = molecular target: T4, IKZF3 (Homo sapiens, UniProt Q96SW2+Q9UKT9); test: Western-blot assay, substrate protein degradation in hPBMCs: IKZF3; settings: for IKZF3 substrate protein remaining %: compounds at 50 nM and 500 nM, 24 hours; for substrate protein remaining % IKZF3: 24 hours of compound treatment, 50 nM and 500 nM
T4 construct: effects of the compounds of the present disclosure on the expression of target proteins in cells; endogenous in cells; host or cells: human PBMCs (hPBMCs)

[5] = molecular target: T5, CK1α (Homo sapiens, UniProt P48729+Q96SW2); test: Western-blot assay, substrate protein degradation in hPBMCs: CK1α; settings: for CK1α substrate protein remaining %: compounds at 50 nM and 500 nM, 24 hours; for substrate protein remaining % CK1α: 24 hours of compound treatment, 50 nM and 500 nM
T5 construct: effects of the compounds of the present disclosure on the expression of target proteins in cells; endogenous in cells; host or cells: human PBMCs (hPBMCs)

[6] = molecular target: T6, GSPT1 (Homo sapiens, UniProt P15170+Q96SW2); test: Western-blot assay, substrate protein degradation in hPBMCs: GSPT1; settings: for GSPT1 substrate protein remaining %: compounds at 50 nM and 500 nM, 24 hours; for substrate protein remaining % GSPT1: 24 hours of compound treatment, 50 nM and 500 nM
T6 construct: effects of the compounds of the present disclosure on the expression of target proteins in cells; endogenous in cells; host or cells: human PBMCs (hPBMCs)
T6 sequence (P15170 whole entry): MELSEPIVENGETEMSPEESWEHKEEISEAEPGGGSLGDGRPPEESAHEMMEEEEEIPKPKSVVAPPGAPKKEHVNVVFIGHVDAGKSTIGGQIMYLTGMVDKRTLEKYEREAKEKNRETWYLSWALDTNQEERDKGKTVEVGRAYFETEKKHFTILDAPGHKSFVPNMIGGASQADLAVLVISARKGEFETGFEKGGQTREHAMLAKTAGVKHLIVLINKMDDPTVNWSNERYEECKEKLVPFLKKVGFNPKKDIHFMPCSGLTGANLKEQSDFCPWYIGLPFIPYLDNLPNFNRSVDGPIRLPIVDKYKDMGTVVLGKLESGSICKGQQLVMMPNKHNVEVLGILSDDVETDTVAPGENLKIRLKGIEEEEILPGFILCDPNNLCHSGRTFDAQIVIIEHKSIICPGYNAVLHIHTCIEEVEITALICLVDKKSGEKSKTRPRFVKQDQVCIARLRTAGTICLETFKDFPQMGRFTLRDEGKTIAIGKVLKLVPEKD
T6 sequence (Q96SW2 whole entry): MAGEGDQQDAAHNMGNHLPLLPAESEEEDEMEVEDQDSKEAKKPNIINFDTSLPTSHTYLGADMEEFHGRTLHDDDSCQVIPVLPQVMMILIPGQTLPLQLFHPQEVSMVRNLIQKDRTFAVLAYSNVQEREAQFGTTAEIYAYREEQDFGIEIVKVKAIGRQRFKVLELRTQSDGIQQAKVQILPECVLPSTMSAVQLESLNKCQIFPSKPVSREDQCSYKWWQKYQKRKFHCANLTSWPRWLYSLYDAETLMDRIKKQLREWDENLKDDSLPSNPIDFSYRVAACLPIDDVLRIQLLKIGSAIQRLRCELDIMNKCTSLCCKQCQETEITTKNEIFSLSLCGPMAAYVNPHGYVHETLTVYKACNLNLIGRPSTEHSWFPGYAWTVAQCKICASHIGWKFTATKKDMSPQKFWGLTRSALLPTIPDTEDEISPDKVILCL
T6 sequence (Q16531 whole entry partner): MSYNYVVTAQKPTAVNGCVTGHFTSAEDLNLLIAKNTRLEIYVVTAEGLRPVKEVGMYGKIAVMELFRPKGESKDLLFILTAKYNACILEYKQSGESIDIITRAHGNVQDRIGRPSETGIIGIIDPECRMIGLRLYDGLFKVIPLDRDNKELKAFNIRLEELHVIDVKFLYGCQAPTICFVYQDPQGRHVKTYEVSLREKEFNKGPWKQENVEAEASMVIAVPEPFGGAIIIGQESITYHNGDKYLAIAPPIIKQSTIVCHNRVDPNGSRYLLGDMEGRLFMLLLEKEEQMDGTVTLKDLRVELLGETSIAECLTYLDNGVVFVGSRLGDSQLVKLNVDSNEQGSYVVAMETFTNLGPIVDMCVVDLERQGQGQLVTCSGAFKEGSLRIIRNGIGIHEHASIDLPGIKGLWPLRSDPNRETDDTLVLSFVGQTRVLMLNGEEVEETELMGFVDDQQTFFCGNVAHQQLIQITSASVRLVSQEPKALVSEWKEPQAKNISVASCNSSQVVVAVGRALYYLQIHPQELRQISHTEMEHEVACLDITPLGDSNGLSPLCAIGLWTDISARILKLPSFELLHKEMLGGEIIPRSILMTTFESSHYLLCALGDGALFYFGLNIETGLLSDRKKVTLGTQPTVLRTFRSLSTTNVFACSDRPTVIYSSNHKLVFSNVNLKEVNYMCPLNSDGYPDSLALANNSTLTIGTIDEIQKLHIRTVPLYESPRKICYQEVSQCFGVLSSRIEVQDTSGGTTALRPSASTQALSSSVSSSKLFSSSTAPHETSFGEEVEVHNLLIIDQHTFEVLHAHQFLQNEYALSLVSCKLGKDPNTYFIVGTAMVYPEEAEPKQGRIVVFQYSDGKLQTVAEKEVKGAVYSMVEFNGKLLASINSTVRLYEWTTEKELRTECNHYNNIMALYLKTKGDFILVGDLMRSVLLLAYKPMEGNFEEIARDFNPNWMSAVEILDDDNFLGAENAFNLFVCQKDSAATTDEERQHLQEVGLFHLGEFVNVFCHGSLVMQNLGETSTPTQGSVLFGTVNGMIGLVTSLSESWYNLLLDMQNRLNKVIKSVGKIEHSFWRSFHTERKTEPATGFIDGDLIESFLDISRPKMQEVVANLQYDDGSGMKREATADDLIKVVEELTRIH

T4 sequence (Q9UKT9 whole entry): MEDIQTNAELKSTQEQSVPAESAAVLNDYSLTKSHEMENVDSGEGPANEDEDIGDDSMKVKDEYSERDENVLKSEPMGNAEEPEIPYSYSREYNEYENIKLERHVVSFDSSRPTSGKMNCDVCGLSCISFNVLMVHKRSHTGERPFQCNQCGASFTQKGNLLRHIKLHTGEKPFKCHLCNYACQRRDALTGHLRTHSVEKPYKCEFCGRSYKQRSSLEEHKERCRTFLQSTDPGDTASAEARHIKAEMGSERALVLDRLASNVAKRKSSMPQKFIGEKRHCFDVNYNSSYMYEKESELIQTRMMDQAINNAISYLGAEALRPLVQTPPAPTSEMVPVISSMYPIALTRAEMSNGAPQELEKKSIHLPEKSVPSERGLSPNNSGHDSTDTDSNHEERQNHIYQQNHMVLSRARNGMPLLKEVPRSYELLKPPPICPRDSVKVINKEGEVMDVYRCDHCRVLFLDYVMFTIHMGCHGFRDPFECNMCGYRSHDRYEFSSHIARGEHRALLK
T4 sequence (Q96SW2 whole entry): as the sequence (Q96SW2 whole entry) above
T4 sequence (Q16531 whole entry partner): as the sequence (Q16531 whole entry partner) above
T3 sequence (Q9UKS7 whole entry): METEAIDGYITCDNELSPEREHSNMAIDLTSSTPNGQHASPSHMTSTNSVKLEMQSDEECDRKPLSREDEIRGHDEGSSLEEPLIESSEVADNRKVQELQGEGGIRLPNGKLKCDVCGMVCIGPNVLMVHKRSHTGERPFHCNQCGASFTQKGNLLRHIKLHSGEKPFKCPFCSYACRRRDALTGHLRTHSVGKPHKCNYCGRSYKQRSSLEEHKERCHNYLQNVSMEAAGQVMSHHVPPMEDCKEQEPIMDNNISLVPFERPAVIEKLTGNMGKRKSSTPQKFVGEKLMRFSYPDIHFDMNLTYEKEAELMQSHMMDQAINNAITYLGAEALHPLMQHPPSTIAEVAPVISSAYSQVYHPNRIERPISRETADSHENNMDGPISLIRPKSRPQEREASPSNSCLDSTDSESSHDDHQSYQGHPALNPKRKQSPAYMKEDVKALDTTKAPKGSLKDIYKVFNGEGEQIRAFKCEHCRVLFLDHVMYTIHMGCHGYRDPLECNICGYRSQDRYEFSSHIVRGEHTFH
T3 sequence (Q96SW2 whole entry): as the sequence (Q96SW2 whole entry) above
T3 sequence (Q16531 whole entry partner): as the sequence (Q16531 whole entry partner) above
T2 sequence (Q13422 whole entry): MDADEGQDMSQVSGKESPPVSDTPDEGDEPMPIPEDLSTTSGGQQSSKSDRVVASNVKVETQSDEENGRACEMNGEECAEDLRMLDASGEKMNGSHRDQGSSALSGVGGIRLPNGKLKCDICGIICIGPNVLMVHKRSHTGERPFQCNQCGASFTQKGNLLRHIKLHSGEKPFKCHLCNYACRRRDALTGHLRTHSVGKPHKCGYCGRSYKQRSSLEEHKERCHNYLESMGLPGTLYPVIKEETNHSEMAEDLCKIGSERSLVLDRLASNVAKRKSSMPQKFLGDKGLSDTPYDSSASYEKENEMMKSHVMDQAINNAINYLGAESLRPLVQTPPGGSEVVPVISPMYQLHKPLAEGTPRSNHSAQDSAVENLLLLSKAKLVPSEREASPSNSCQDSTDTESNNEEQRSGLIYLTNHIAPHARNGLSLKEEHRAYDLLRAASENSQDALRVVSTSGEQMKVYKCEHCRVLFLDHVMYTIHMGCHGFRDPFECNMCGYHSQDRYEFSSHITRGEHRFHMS
T2 sequence (Q96SW2 whole entry): as the sequence (Q96SW2 whole entry) above
T2 sequence (Q16531 whole entry partner): as the sequence (Q16531 whole entry partner) above
T5 sequence (P48729 whole entry): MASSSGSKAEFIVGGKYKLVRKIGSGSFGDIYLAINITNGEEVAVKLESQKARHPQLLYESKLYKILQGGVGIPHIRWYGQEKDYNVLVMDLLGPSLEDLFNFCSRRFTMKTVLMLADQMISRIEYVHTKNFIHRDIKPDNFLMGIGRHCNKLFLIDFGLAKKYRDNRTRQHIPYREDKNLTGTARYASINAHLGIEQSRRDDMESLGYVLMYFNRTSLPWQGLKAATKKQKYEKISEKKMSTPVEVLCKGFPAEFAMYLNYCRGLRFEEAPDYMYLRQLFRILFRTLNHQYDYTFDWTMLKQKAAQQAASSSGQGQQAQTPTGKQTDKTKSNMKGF
T5 sequence (Q96SW2 whole entry): as the sequence (Q96SW2 whole entry) above
T5 sequence (Q16531 whole entry partner): as the sequence (Q16531 whole entry partner) above

| Compound | WEE1 substrate protein remaining % [1] | IKZF1 substrate protein remaining % [2] | IKZF2 substrate protein remaining % [3] | IKZF3 substrate protein remaining % [4] | CK1α substrate protein remaining % [5] | GSPT1 substrate protein remaining % [6] | substrate protein remaining % WEE1 [1] | substrate protein remaining % IKZF1 [2] | substrate protein remaining % IKZF2 [3] | substrate protein remaining % IKZF3 [4] | substrate protein remaining % CK1α [5] | substrate protein remaining % GSPT1 [6] |
| --- | --- | --- | --- | --- | --- | --- | --- | --- | --- | --- | --- | --- |
| O=C1CCN(N2Cc3cc(CN4CCC(c5noc6cc(F)ccc56)CC4)ccc3C2=O)C(=O)N1 [GT-04864, 1-(5-((4-(6-fluorobenzo[d]isoxazol-3-yl)piperidin-1-yl)methyl)-1-oxoisoindolin-2-yl)dihydropyrimidine-2,4(1H,3H)-dione] | B ("B" is defined as 80%< substrate protein remaining %≤ 100%) | A ("A" is defined as 0% ≤ substrate protein remaining % ≤ 80%) | B ("B" is defined as 80%< substrate protein remaining %≤ 100%) | B ("B" is defined as 80%< substrate protein remaining %≤ 100%) | B ("B" is defined as 80%< substrate protein remaining %≤ 100%) | A ("A" is defined as 0% ≤ substrate protein remaining % ≤ 80%) |  |  |  |  |  |  |
| O=C1CCN(N2Cc3cc(CN4CCC(c5n[nH]c6cc(F)ccc56)CC4)ccc3C2=O)C(=O)N1 [GT-07508, 1-(5-((4-(6-fluoro-1H-indazol-3-yl)piperidin-1-yl)methyl)-1-oxoisoindolin-2-yl)dihydropyrimidine-2,4(1H,3H)-dione] |  |  |  |  |  |  | A (0% ≤ substrate protein remaining % ≤ 80%) | A (0% ≤ substrate protein remaining % ≤ 80%) | A (0% ≤ substrate protein remaining % ≤ 80%) | B (80%< substrate protein remaining %≤ 100%) | A (0% ≤ substrate protein remaining % ≤ 80%) | A (0% ≤ substrate protein remaining % ≤ 80%) |
| CC1(C)CCC(CN2CC3CC2CN3Cc2ccc3c(c2)C(=O)N(N2CCC(=O)NC2=O)C3=O)=C(c2ccc(Cl)cc2)C1 (stereo not drawn) [GT-07334, 5-((5-((4'-chloro-5,5-dimethyl-3,4,5,6-tetrahydro-[1,1'-biphenyl]-2-yl)methyl)-2,5-diazabicyclo[2.2.1]heptan-2-yl)methyl)-2-(2,4-dioxotetrahydropyrimidin-1(2H)-yl)isoindoline-1,3-dione] |  |  |  |  |  |  | A (0% ≤ substrate protein remaining % ≤ 80%) | B (80%< substrate protein remaining %≤ 100%) | B (80%< substrate protein remaining %≤ 100%) | B (80%< substrate protein remaining %≤ 100%) | A (0% ≤ substrate protein remaining % ≤ 80%) | B (80%< substrate protein remaining %≤ 100%) |
| O=C1CCN(N2C(=O)c3ccc(CN4CCCN(c5cccc(Cl)c5Cl)CC4)cc3C2=O)C(=O)N1 [GT-07439, 5-((4-(2,3-dichlorophenyl)-1,4-diazepan-1-yl)methyl)-2-(2,4-dioxotetrahydropyrimidin-1(2H)-yl)isoindoline-1,3-dione] |  |  |  |  |  |  | B (80%< substrate protein remaining %≤ 100%) | B (80%< substrate protein remaining %≤ 100%) | B (80%< substrate protein remaining %≤ 100%) | B (80%< substrate protein remaining %≤ 100%) | A (0% ≤ substrate protein remaining % ≤ 80%) | A (0% ≤ substrate protein remaining % ≤ 80%) |
| O=C1CCN(N2Cc3cc(CN4CCN(c5ccc(F)cc5F)CC4)ccc3C2=O)C(=O)N1 [GT-06778, 1-(5-((4-(2,4-difluorophenyl)piperazin-1-yl)methyl)-1-oxoisoindolin-2-yl)dihydropyrimidine-2,4(1H,3H)-dione] | B ("B" is defined as 80%< substrate protein remaining %≤ 100%) | B ("B" is defined as 80%< substrate protein remaining %≤ 100%) | B ("B" is defined as 80%< substrate protein remaining %≤ 100%) | B ("B" is defined as 80%< substrate protein remaining %≤ 100%) | A ("A" is defined as 0% ≤ substrate protein remaining % ≤ 80%) | A ("A" is defined as 0% ≤ substrate protein remaining % ≤ 80%) |  |  |  |  |  |  |
| O=C1CCN(N2Cc3cc(CN4CCN(c5n[nH]c6cc(F)ccc56)CC4)ccc3C2=O)C(=O)N1 [GT-07545, 1-(5-((4-(6-fluoro-1H-indazol-3-yl)piperazin-1-yl)methyl)-1-oxoisoindolin-2-yl)dihydropyrimidine-2,4(1H,3H)-dione] |  |  |  |  |  |  | A (0% ≤ substrate protein remaining % ≤ 80%) | A (0% ≤ substrate protein remaining % ≤ 80%) | B (80%< substrate protein remaining %≤ 100%) | B (80%< substrate protein remaining %≤ 100%) | A (0% ≤ substrate protein remaining % ≤ 80%) | A (0% ≤ substrate protein remaining % ≤ 80%) |
| O=C1CCN(N2C(=O)c3ccc(CN4C5CCC4CN(C(c4ccccc4)c4ccccc4)C5)cc3C2=O)C(=O)N1 [GT-06455, 5-((3-benzhydryl-3,8-diazabicyclo[3.2.1]octan-8-yl)methyl)-2-(2,4-dioxotetrahydropyrimidin-1(2H)-yl)isoindoline-1,3-dione] | A ("A" is defined as 0% ≤ substrate protein remaining % ≤ 80%) | B ("B" is defined as 80%< substrate protein remaining %≤ 100%) | B ("B" is defined as 80%< substrate protein remaining %≤ 100%) | B ("B" is defined as 80%< substrate protein remaining %≤ 100%) | B ("B" is defined as 80%< substrate protein remaining %≤ 100%) | B ("B" is defined as 80%< substrate protein remaining %≤ 100%) |  |  |  |  |  |  |
| O=C1CCN(N2Cc3cc(CN4CCC(c5cccc6c(F)cccc56)CC4)ccc3C2=O)C(=O)N1 [GT-07589, 1-(5-((4-(5-fluoronaphthalen-1-yl)piperidin-1-yl)methyl)-1-oxoisoindolin-2-yl)dihydropyrimidine-2,4(1H,3H)-dione] |  |  |  |  |  |  | B (80%< substrate protein remaining %≤ 100%) | B (80%< substrate protein remaining %≤ 100%) | B (80%< substrate protein remaining %≤ 100%) | B (80%< substrate protein remaining %≤ 100%) | B (80%< substrate protein remaining %≤ 100%) | A (0% ≤ substrate protein remaining % ≤ 80%) |
| O=C1CCN(N2C(=O)c3ccc(CN4CCN(c5ccsc5)CC4)cc3C2=O)C(=O)N1 [GT-05313, 2-(2,4-dioxotetrahydropyrimidin-1(2H)-yl)-5-((4-(thiophen-3-yl)piperazin-1-yl)methyl)isoindoline-1,3-dione] | B ("B" is defined as 80%< substrate protein remaining %≤ 100%) | B ("B" is defined as 80%< substrate protein remaining %≤ 100%) | B ("B" is defined as 80%< substrate protein remaining %≤ 100%) | B ("B" is defined as 80%< substrate protein remaining %≤ 100%) | B ("B" is defined as 80%< substrate protein remaining %≤ 100%) | A ("A" is defined as 0% ≤ substrate protein remaining % ≤ 80%) |  |  |  |  |  |  |
| O=C1CCN(N2C(=O)c3ccc(CN4CCC(n5cnc6cc(F)ccc65)CC4)cc3C2=O)C(=O)N1 [GT-07529, 2-(2,4-dioxotetrahydropyrimidin-1(2H)-yl)-5-((4-(5-fluoro-1H-benzo[d]imidazol-1-yl)piperidin-1-yl)methyl)isoindoline-1,3-dione] |  |  |  |  |  |  | B (80%< substrate protein remaining %≤ 100%) | B (80%< substrate protein remaining %≤ 100%) | B (80%< substrate protein remaining %≤ 100%) | B (80%< substrate protein remaining %≤ 100%) | A (0% ≤ substrate protein remaining % ≤ 80%) | A (0% ≤ substrate protein remaining % ≤ 80%) |
| O=C1CCN(N2Cc3cc(CN4CCC(c5noc6ccccc56)CC4)ccc3C2=O)C(=O)N1 [GT-07642, 1-(5-((4-(benzo[d]isoxazol-3-yl)piperidin-1-yl)methyl)-1-oxoisoindolin-2-yl)dihydropyrimidine-2,4(1H,3H)-dione] |  |  |  |  |  |  | B (80%< substrate protein remaining %≤ 100%) | B (80%< substrate protein remaining %≤ 100%) | B (80%< substrate protein remaining %≤ 100%) | B (80%< substrate protein remaining %≤ 100%) | B (80%< substrate protein remaining %≤ 100%) | A (0% ≤ substrate protein remaining % ≤ 80%) |
